Measurements as given in ChEMBL document CHEMBL1201862, “PubChem BioAssay data set” (2004).
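Growth conditions: 96-well plates. Treatment: test compound, 48 hours, 5 concentrations. Analysis: linear interpolation between bracketing concentrations; unreached endpoints set to highest concentration. Here, GI50 denotes the concentration required for 50% inhibition of growth.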 Active and inactive are the calls of the source. Rule as the data show it: active = GI50 up to about 1.1 µM and inactive = higher.

What was measured:
Test in all cases: growth of human tumour cells (NCI), 48 h
[1] = tested on: KM12
[2] = tested on: U-251
[3] = tested on: EKVX
[4] = tested on: CCRF-CEM
[5] = tested on: HOP-92
[6] = tested on: HL-60
[7] = tested on: HOP-62
[8] = tested on: MOLT-4
[9] = tested on: SF-539
[10] = tested on: RPMI-8226
[11] = tested on: TK-10
[12] = tested on: LOX IMVI
[13] = tested on: SK-OV-3
[14] = tested on: HCT-15
[15] = tested on: SK-MEL-5
[16] = tested on: BT-549
[17] = tested on: A498
[18] = tested on: SR
[19] = tested on: ACHN
[20] = tested on: CAKI-1
[21] = tested on: PC-3
[22] = tested on: IGROV-1
[23] = tested on: NCI-H460
[24] = tested on: OVCAR-5
[25] = tested on: MCF7
[26] = tested on: SK-MEL-28
[27] = tested on: MDA-MB-435
[28] = tested on: Malme-3M
[29] = tested on: MDA-MB-231
[30] = tested on: SNB-75
[31] = tested on: NCI-H226
[32] = tested on: SW-620
[33] = tested on: DU-145
[34] = tested on: NCI/ADR-RES
[35] = tested on: UACC-62
[36] = tested on: SF-295
[37] = tested on: OVCAR-3
[38] = tested on: COLO 205
[39] = tested on: OVCAR-4
[40] = tested on: OVCAR-8
[41] = tested on: K562
[42] = tested on: UACC-257
[43] = tested on: SK-MEL-2
[44] = tested on: RXF 393
[45] = tested on: NCI-H522
[46] = tested on: HCC 2998
[47] = tested on: NCI-H23
[48] = tested on: 786-0
[49] = tested on: T47D
[50] = tested on: M14
[51] = tested on: HT-29

C=CCN1C(=O)/C(=C/c2ccccc2)N=C1SC1OC(COC(=O)c2ccccc2)C(OC(=O)c2ccccc2)C1OC(=O)c1ccccc1 (stereo not drawn)
GI50 [1]: > 100 µM (inactive) | GI50 [2]: > 100 µM (inactive) | GI50 [3]: > 100 µM (inactive) | GI50 [4]: 34.9 µM (inactive) | GI50 [5]: 60.5 µM (inactive) | GI50 [6]: 32.8 µM (inactive) | GI50 [7]: > 100 µM (inactive) | GI50 [8]: > 100 µM (inactive) | GI50 [9]: > 100 µM (inactive) | GI50 [10]: 16.4 µM (inactive) | GI50 [11]: > 100 µM (inactive) | GI50 [12]: 78.3 µM (inactive) | GI50 [13]: > 100 µM (inactive) | GI50 [14]: > 100 µM | GI50 [15]: > 100 µM (inactive) | GI50 [16]: > 100 µM (inactive) | GI50 [17]: 49.8 µM (inactive) | GI50 [18]: 64.3 µM (inactive) | GI50 [19]: 30.3 µM (inactive) | GI50 [20]: 97.9 µM (inactive) | GI50 [21]: > 100 µM (inactive) | GI50 [22]: > 100 µM (inactive) | GI50 [23]: > 100 µM (inactive) | GI50 [24]: 44.3 µM (inactive) | GI50 [25]: 15.1 µM (inactive) | GI50 [26]: > 100 µM (inactive) | GI50 [27]: > 100 µM (inactive) | GI50 [28]: > 100 µM (inactive) | GI50 [29]: 91.2 µM (inactive) | GI50 [30]: > 100 µM (inactive) | GI50 [31]: > 100 µM (inactive) | GI50 [32]: 79.8 µM (inactive) | GI50 [33]: > 100 µM (inactive) | GI50 [34]: > 100 µM (inactive) | GI50 [35]: 31.3 µM (inactive) | GI50 [36]: > 100 µM (inactive) | GI50 [37]: > 100 µM (inactive) | GI50 [38]: > 100 µM (inactive) | GI50 [39]: > 100 µM (inactive) | GI50 [40]: > 100 µM (inactive) | GI50 [41]: 46.2 µM (inactive) | GI50 [42]: 25.7 µM (inactive) | GI50 [43]: > 100 µM (inactive) | GI50 [44]: > 100 µM (inactive) | GI50 [45]: 10.4 µM (inactive) | GI50 [46]: > 100 µM (inactive) | GI50 [47]: > 100 µM (inactive)

COc1ccc(OC)c2c3c([nH]c12)C(=O)Nc1nc(N)nc(N)c1C3
GI50 [1]: 4.57 µM (inactive) | GI50 [3]: > 100 µM (inactive) | GI50 [5]: > 100 µM (inactive) | GI50 [48]: > 100 µM (inactive) | GI50 [11]: > 100 µM (inactive) | GI50 [12]: > 100 µM (inactive) | GI50 [13]: > 100 µM (inactive) | GI50 [49]: > 100 µM (inactive) | GI50 [16]: > 100 µM (inactive) | GI50 [24]: > 100 µM (inactive) | GI50 [26]: > 100 µM (inactive) | GI50 [27]: 0.273 µM (active) | GI50 [28]: 30.8 µM (inactive) | GI50 [31]: > 100 µM (inactive) | GI50 [32]: 2.07 µM (inactive) | GI50 [33]: > 100 µM (inactive) | GI50 [37]: 3.14 µM (inactive) | GI50 [39]: > 100 µM (inactive) | GI50 [40]: 4.89 µM (inactive) | GI50 [41]: 0.634 µM (active) | GI50 [42]: > 100 µM (inactive) | GI50 [43]: > 100 µM (inactive) | GI50 [44]: > 100 µM (inactive) | GI50 [50]: > 100 µM (inactive) | GI50 [46]: > 100 µM (inactive) | GI50 [51]: 1.12 µM (inactive)
